Assay [1] concerns normal rats. Put plainly: Blood triglyceride (TG)-lowering action in normal rats. Type of assay: in vivo. As to conditions: 0.3 mg/kg p.o. once a day for 4 days, normal male SD rats, non-fasting, blood TG vs vehicle group; for inhibition in vivo at 0.3 mg/kg: Rattus norvegicus, po, 96 h, read-out: hypotriglyceridemic rate (%, 0.3 mg/kg, p.o.). The procedure: 1) Blood Triglyceride (TG)-Lowering Action in Normal Rats
7 to 9-week-old male SD rats (manufactured by SEAC Yoshitomi, Ltd.) were used for the test. A test compound and a control compound (GW-9578: J. Med. Chem. 1999, 42, 3785-3788) were dissolved or suspended in 1% ethanol, 0.05% Tween80 (final concentration), and 0.5% hydroxypropylmethyl cellulose (HPMC) was added to adjust to a given concentration. The prepared solution was orally administered once a day for 4 days. After administration for 4 days, blood samples were collected from the jugular vein under non-fasting condition and blood TG was measured by an enzyme method. The lowering rate was calculated by determining the rate of a value obtained by subtracting the average blood TG of a drug administration group from the average blood TG of a vehicle administration group, to the average blood TG of the vehicle administration group.

Assay [2] deals with T1, Human Peroxisome Proliferator-Activated Receptor (PPAR)α (Homo sapiens, UniProt Q07869).
T1 construct: expressed in transfected cells; host or cells: CV-1 cells (CCL-70)
T1 sequence (Q07869 239-466 limits assumed): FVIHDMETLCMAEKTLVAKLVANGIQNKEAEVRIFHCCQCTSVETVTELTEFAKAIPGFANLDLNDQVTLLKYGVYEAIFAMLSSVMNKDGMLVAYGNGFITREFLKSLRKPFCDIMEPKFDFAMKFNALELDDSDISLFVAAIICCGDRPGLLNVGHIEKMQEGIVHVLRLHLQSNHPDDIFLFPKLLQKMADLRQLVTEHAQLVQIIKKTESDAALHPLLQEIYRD
Put plainly: Transcription activation test for human PPARα (GAL4-hPPARαLBD luciferase reporter in CV-1 cells). Type of assay: cell-based. The note with it: firefly luciferase reporter, 24 hr with test compound in serum free medium, read-out: transactivation action (EC50, nmol/l). From the text: Transcription Activation Test for Human Peroxisome Proliferator-Activated Receptor (PPAR)α
CV-1 cells (CCL-70, manufactured by Dainippon Pharma Co., Ltd.) cultured in Dulbecco's Modified Eagle Medium (DMEM) containing 10% fetal bovine serum (FBS) were transfected, using Lipofectamine 2000 (manufactured by Invitrogen), with pBIND vector (manufactured by Promega) a fusion that expresses protein (GAL4-hPPARαLBD, manufactured based on Diabetes 47: 1841-1847, 1998) of a DNA binding region of a yeast transcription factor (GAL4) and a human PPARα ligand binding region, and an internal standard renilla luciferase, and GAL4 responsive TK vector (manufactured by Promega) that expresses reporter firefly luciferase. 24 hr later, the medium was changed to a serum free medium containing a test compound, and the luciferase activity after 24 hr was measured.
On the technique in general: In a reporter assay the amount or activity of a reporter protein is the signal.

Assay [3] concerns high cholesterol diet-treated rat. Put plainly: Influence on serum lipid of high cholesterol diet-treated rat. Format: in vivo, male SD rats. As to conditions: 0.3 mg/kg p.o. once a day for 5 days, high cholesterol diet rats, non-fasting; for inhibition in vivo at 0.3 mg/kg: Rattus norvegicus, po, 120 h. The procedure: 2) Influence on Serum Lipid of High Cholesterol Diet-Treated Rat
8-week-old male SD rats (manufactured by SEAC Yoshitomi, Ltd.) were raised on a standard diet CE-2 (manufactured by Japan Clea, Inc.) added with 1% cholesterol, 2% olive oil and 0.2% cholic acid, from one week before test compound administration to the last day of the administration. A test compound and a control compound (GW-9578) were dissolved or suspended in 1% ethanol, 0.05% Tween80 (final concentration), and 0.5% hydroxypropylmethyl cellulose (HPMC) was added to adjust to a given concentration. The prepared solution was orally administered once a day for 5 days. After administration for 5 days, blood samples were collected from the jugular vein under non-fasting condition and blood lipid was measured by an enzyme method. The lowering rate was calculated by determining the rate of a value obtained by subtracting the average blood TG (or average blood TC) of a drug administration group from the average blood triglyceride (TG) (or average blood total cholesterol (TC)) of a vehicle administration group, to the average blood TG (or average blood TC) of the vehicle administration group.

The mark [4] stands for this setting: blood total cholesterol vs vehicle group, read-out: lowering rate (%, 0.3 mg/kg, p.o.) TC.
Setting [5] is: blood triglyceride vs vehicle group, read-out: lowering rate (%, 0.3 mg/kg, p.o.) TG.

Like-named read-outs stand apart in the source and are kept apart here.

For the compound `CC(C)(Sc1nc(CCOc2ccc(-c3ccc(F)cc3)cc2)cs1)C(=O)O` [Example 34, 2-[(4-{2-[(4′-fluorobiphenyl-4-yl)oxy]ethyl}-1,3-thiazol-2-yl)thio]-2-methylpropionic acid], the inhibition in vivo at 0.3 mg/kg amounted to 62% in assay [1], 43% in assay [3] (setting [4]) and 45% in assay [3] (setting [5]). Further, the EC50 in assay [2] was found to be 10.4 nmol/L.

Turning to `CC(C)(Sc1nc(CCOc2ccc(-c3ccc(F)cc3)cn2)cs1)C(=O)O` [Example 100], the results for the inhibition in vivo at 0.3 mg/kg in assay [1], in assay [3] (setting [4]) and in assay [3] (setting [5]) were 61%, 35% and 38%, respectively. For the same compound, the EC50 in assay [2] turned out to be 11.2 nmol/L.

For `CC(C)(Sc1nc(CCNc2ncc(-c3ccc(OC(F)(F)F)cc3)cn2)cs1)C(=O)O` [Example 162, 2-methyl-2-({4-[2-({5-[4-(trifluoromethoxy)phenyl]pyrimidin-2-yl}amino)ethyl]-1,3-thiazol-2-yl}thio)propionic acid], the inhibition in vivo at 0.3 mg/kg in assay [1] was 65%; in assay [3] (setting [4]) it was 31%; in assay [3] (setting [5]), 48%. Also, the EC50 in assay [2] was 21 nmol/L.

In the case of `CC(C)(Sc1nc(CCNc2ccc(-c3ccc(C(F)(F)F)cc3F)nn2)cs1)C(=O)O` [Example 224, 2-({4-[2-({6-[2-fluoro-4-(trifluoromethyl)phenyl]pyridazin-3-yl}amino)ethyl]-1,3-thiazol-2-yl}thio)-2-methylpropionic acid], the inhibition in vivo at 0.3 mg/kg in assay [1] is 63%; in assay [3] (setting [4]) it was 31%; in assay [3] (setting [5]), 57%. The EC50 in assay [2] was 29.7 nmol/L.

Take `CC(C)(Sc1nc(CCNc2cnc(-c3ccc(Cl)cc3)cn2)cs1)C(=O)O` [Example 226, 2-{[4-(2-{[5-(4-chlorophenyl)pyrazin-2-yl]amino}ethyl)-1,3-thiazol-2-yl]thio}-2-methylpropionic acid]: the inhibition in vivo at 0.3 mg/kg in assay [1] amounted to 64%; in assay [3] (setting [4]), 38%; in assay [3] (setting [5]), 56%. The EC50 in assay [2] came to 16.5 nmol/L.

`CCCCCCCN(CCc1csc(SC(C)(C)C(=O)O)n1)c1ncc(CC)cn1` [Example 265, 2-[(4-{2-[(5-ethylpyrimidin-2-yl)(heptyl)amino]ethyl}-1,3-thiazol-2-yl)thio]-2-methylpropionic acid]: the inhibition in vivo at 0.3 mg/kg in assay [1] worked out at 69%; in assay [3] (setting [4]), 31%; in assay [3] (setting [5]), 63%. The EC50 in assay [2] is 7 nmol/L.

For the compound `CCc1cnc(N(CCc2csc(SC(C)(C)C(=O)O)n2)Cc2cnn(-c3ccccc3)c2)nc1` [Example 326, 2-{[4-(2-{(5-ethylpyrimidin-2-yl)[(1-phenyl-1H-pyrazol-4-yl)methyl]amino}ethyl)-1,3-thiazol-2-yl]thio}-2-methylpropionic acid], the inhibition in vivo at 0.3 mg/kg in assay [1] was 59%; in assay [3] (setting [4]), 31%; in assay [3] (setting [5]), 43%. Further, in assay [2], the EC50 was 38.8 nmol/L.

Regarding `CCc1cnc(N(C/C=C/c2ccccc2)CCc2csc(SC(C)(C)C(=O)O)n2)nc1` [Example 346, 2-{[4-(2-{(5-ethylpyrimidin-2-yl)[(2E)-3-phenylprop-2-en-1-yl]amino}ethyl)-1,3-thiazol-2-yl]thio}-2-methylpropionic acid], the inhibition in vivo at 0.3 mg/kg in assay [1] was found to be 63%; in assay [3] (setting [4]), 31%; in assay [3] (setting [5]) it was 47%. The EC50 in assay [2] stood at 13.6 nmol/L.

Regarding `CCCCCCCN(CCc1csc(SC(C)(C)C(=O)O)n1)c1ncc(N2CCOCC2)cn1` [Example 442, 2-[(4-{2-[heptyl(5-morpholin-4-ylpyrimidin-2-yl)amino]ethyl}-1,3-thiazol-2-yl)thio]-2-methylpropionic acid], the inhibition in vivo at 0.3 mg/kg was 65% in assay [1], 38% in assay [3] (setting [4]) and 39% in assay [3] (setting [5]). Moreover, in assay [2], the EC50 turned out to be 5.5 nmol/L.

Take `CCCCCCCN(CCc1ccc(SC(C)(C)C(=O)O)cc1)C(=O)Nc1ccc(F)cc1F` [GW-9578, reference compound]: in assay [1], the “hypotriglyceridemic rate (%, 0.3 mg/kg, p.o.)” value is 50-60%. In addition, in assay [3] (blood total cholesterol vs vehicle group), the “lowering rate (%, 0.3 mg/kg, p.o.) TC” value is 30-50%. In addition, in assay [3] (blood triglyceride vs vehicle group), the “lowering rate (%, 0.3 mg/kg, p.o.) TG” value is recorded as 30-50%.

Source of the values: patent US8026370B2, “Carboxylic acid derivative containing thiazole ring and pharmaceutical use thereof” (Mitsubishi Tanabe Pharma Corporation, priority 2004, dated 2011).
